Measurements reported in patent publication US8772243B2, “Methods for predicting the response to anti-cancer treatment with an agonist of TLR7 or an agonist of TLR8” (Inserm (Institut National de la Sante et de la Recherche …, priority 2008, dated 2014).

How the values were obtained:
Assay type in all cases: cell-based, human
[1] = system: IκBα (NF-κB activation) in A549 cells; experiment: Western blot of IκBα phosphorylation and degradation (NF-κB activation) in A549 cells; details: loxoribine 10 μg/ml or Poly U 10 μg/ml
Procedure: FIG. 3 TLR7 and TLR8 lead to IκBα phosphorylation, but not degradation. A549 cells were untreated or treated with TNF-α (10 ng/ml) (A, B), loxoribine (10 μg/ml) (C, D), or Poly U (10 μg/ml) (E, F) for the indicated periods of time. The cell lysates were analyzed by immunoblot with anti-phospho-specific IκBα, anti-IκBα and anti-actin antibodies (A, C, E). Quantification of the bands was realized using Image J software (B, D, F). Histograms represent the intensity of each band observed in the blots at the indicated time point and are expressed in arbitrary units normalized to actin intensity (relative intensity) both for phospho-IκBα and IκBα. Results are representative of three independent experiments.
A549 cells (1.10^6 cells) were starved for 4 hours in medium containing 2% FCS, and then stimulated with loxoribine, PolyU, or TNFα (10 ng/ml) for different periods of time as indicated. Cells were lysed in 50 mM Tris-HCl, pH 7.5, 150 mM NaCl, 2 mM EDTA, 0.5% triton X100, 2 mM Na3VO4, 10 mM NaF, and 10 mM sodium pyrophosphate supplemented with a complete protease inhibitor cocktail (Boehringer, Paris, France). Protein contents in the cell lysates were quantified using the quick start Bradford protein assay kit (Biorad, Marnes-La-Coquette, France) to ensure that all samples contained similar amounts of protein. Proteins (30 μg) were resolved in 10% Tris-glycine polyacrylamide gels (Invitrogen, Cergy Pontoise, France) and transferred to PVDF immobilon-P membranes (Millipore, Molsheim, France). Blots were probed with monoclonal antibody against phospho-IκBα (Cell Signaling Technology, Danvers, USA), total IκBα, and actin (Santa Cruz, Le Perray en Yvelines, France).
In order to determine if the TLR7 and 8 expressed by lung tumor cell lines were able to induce intracellular signaling pathways, we studied NF-κB activation in response to stimulation with TNFα, loxoribine (homodimeric TLR7 ligand), or Poly U (homodimeric TLR8 ligand). […] In contrast TLR7 or 8 stimulation led to atypical NF-κB activation. […] Furthermore, we also observed that the kinetics of IκBα phosphorylation were dependent on the stimulus. On the one hand, TNFα stimulation induced two waves of IκBα phosphorylation; the first one after ten minutes was associated with IκBα degradation, and the second one after sixty minutes was not associated with IκBα degradation. On the other hand, we observed that TLR stimulation induced only a phosphorylation of IκBα, with a maximum phosphorylation obtained after thirty minutes without degradation of IκBα.

[2] = system: A549 cells; experiment: Tumor cell proliferation assay (Alamar blue reduction); details: 10 μg/ml, ten days
Procedure: (§1) FIG. 4 TLR7 and 8 induce survival of lung tumor cells. (A) A549 cells were unstimulated, stimulated with loxoribine (10 μg/ml), Poly U (10 μg/ml), or Gardiquimod(10μg/ml) and incubated with Alamar blue for 10 days. Reduction of Alamar blue was then determined by spectrophotometry at 570 and 600 nm. The percentage of reduced Alamar blue was calculated as described by the manufacturer. A549 cells were unstimulated or stimulated with loxoribine, Poly U, Gardiquimod, etoposide, or cycloheximide for 24 h. (B) The percentage of dead cells was determined by Trypan blue exclusion. (C) The DNA content was measured by IP staining after RNAse A treatment. The percentages indicate the proportion of subdiploid (G0/G1) and […]. Data represent mean values±SD from 3 independent experiments (*p<0.05; ** p<0.01, Student test). (D) A549 cells were cultured for 6 h in the presence of loxoribine, Poly U, or Gardiquimod, and the expression of Bcl-2 was assayed using Taq Man Low Density Array technology. The ΔCT values for Bcl-2 expression were calculated by subtraction of the CT value obtained for the 18S housekeeping gene. The ΔΔCT values were obtained by subtraction of ΔCT values for unstimulated cells from those obtained for stimulated cells. The fold increase (arbitrary unit) was obtained by 2^−ΔΔCT.
Human lung cancer cell lines were seeded in 96-well plates (800 cells per well) and left unstimulated or were stimulated with loxoribine, Poly U, or Gardiquimod. The proliferation assay was performed with Alamar blue (AbD Serotec, Cergy Pontoise, France) according to the manufacturer's instructions. Briefly, cells were seeded and stimulated with TLR ligands in 100 μl of medium, and 10 μl of Alamar Blue was added. The optical density in each well was determined at 540 nm and 570 nm after 10 days of culture, and the percentage of reduced Alamar blue was determined. The percentage of reduced Alamar blue in unstimulated cells was determined as 100%, and the percentages of the stimulated cells were determined relative to this value.

[3] = system: Bcl-2 expression in A549 cells; experiment: Bcl-2 expression, Taq Man Low Density Array, A549; details: 6 h, RT-PCR
Procedure: as §1, with “The fold increase (arbitrary unit) was obtained by 2^−ΔΔCT.” left out
Total RNA was extracted from A549 or SK-MES cells stimulated with loxoribine, Poly U, or Gardiquimod for 6 h or from purified human lung cancer cells using the RNeasy isolation-kit RNA (Qiagen, Courtaboeuf, France). The integrity and the quantity of the RNA were evaluated with a bioanalyzer-2100 (Agilent Technologies). All samples were assessed for gene expression analysis using the Taq Man Low-Density Array angiogenesis and immune panel (Applied Biosystem). […] Quantitative real-time TaqMan-PCR was performed using Low-Density-Arrays and the 7900 robotic real-time PCR-system (Applied-Biosystems). […] Data were analyzed using the SDS Software v2.2 (Applied-Biosystems). The ΔCT values were calculated for each gene by subtraction of the CT value of the 18S housekeeping gene from the CT of the gene of interest. […]

[4] = system: A549 and SK-MES cells; experiment: Chemoresistance assay (Trypan blue and Alamar blue); details: Alamar blue reduction
Procedure: FIG. 5 TLR7 and 8 induce chemoresistance of lung tumor cells. A549 (A-C) or SK-MES cells (D-F) were cultured with or without loxoribine or Poly U for 48 h, and then left untreated or were treated with cycloheximide, cisplatine, carboplatine, doxorubicine, or Navelbine. After 36 h, the percentage of dead cells was determined by Trypan blue exclusion (A, D) and cell viability was analyzed by the reduction of Alamar blue (B, C, E and F). Data represent mean values±SD from 3 independent experiments (*p<0.05; **p<0.01, ***p<0.001, Student test).
A549 and SK-MES cells were seeded in 96-well plates (1000 cells per well) and left unstimulated or were stimulated with loxoribine, Poly U, or Gardiquimod for 48 h. Cisplatine, carboplatine, doxorubicine, Navelbine, or cycloheximide was then added for an additional 36 h. The optical density in each well was determined 24 h after the addition of Alamar blue at 540 nm and 570 nm. Alternatively, viable and dead cells were counted using Trypan blue.

Compound	time at which IκBα was phosphorylated (maximum phosphorylation) [1]	increase in reduction of Alamar blue versus unstimulated cells [2]	Bcl-2 expression compared to untreated cells [3]	cell viability after chemotherapy when stimulated prior to induction of apoptosis [4]
Poly U	thirty	20%	increased expression of Bcl-2	significantly higher viability
C=CCn1c(=O)n([C@@H]2O[C@H](CO)[C@@H](O)[C@H]2O)c2nc(N)[nH]c(=O)c21 [loxoribine, 7-allyl-7,8-dihydro-8-oxo-guanosine]	thirty	20%	increased expression of Bcl-2	significantly higher viability
